For one molecule, IC50 results are on record in PMC2752052 (Analytical biochemistry, 2009).

Broadly, the IC50 is the point on the concentration scale where inhibition reaches its midpoint. A low value points to inhibition by little substance.

This test has as its target T1, Sirt1 (Homo sapiens, UniProt Q96EB6).
T1 sequence (Q96EB6 2-747): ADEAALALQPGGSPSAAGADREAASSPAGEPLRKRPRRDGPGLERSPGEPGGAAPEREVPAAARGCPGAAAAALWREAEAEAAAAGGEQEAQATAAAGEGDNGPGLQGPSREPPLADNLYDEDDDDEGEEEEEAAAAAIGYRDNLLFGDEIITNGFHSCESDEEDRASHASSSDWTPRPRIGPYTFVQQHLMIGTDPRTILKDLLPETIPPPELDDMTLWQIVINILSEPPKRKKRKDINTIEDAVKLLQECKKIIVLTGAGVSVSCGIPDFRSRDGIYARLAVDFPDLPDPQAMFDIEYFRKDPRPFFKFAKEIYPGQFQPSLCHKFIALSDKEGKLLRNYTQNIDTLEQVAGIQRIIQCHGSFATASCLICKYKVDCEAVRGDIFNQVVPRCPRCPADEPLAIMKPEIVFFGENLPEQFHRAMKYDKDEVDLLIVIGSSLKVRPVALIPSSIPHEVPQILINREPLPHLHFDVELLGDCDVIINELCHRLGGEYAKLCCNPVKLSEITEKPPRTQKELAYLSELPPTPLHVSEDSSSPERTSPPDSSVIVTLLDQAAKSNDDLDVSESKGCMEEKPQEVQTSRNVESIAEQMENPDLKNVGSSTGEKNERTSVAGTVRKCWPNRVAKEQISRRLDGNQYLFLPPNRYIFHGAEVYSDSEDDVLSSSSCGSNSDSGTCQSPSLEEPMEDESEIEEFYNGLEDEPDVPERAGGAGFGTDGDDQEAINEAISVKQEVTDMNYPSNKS
The test can be described thus: nicotinamidase/glutamate dehydrogenase coupled assay. Format: biochemical.

Molecule `Nc1ncnc2c1ncn2[C@@H]1O[C@H](COP(=O)(O)OP(=O)(O)OC[C@H]2OC(O)[C@H](O)[C@@H]2O)[C@@H](O)[C@H]1O` (stereo partly shown) [ADP-ribose] registered a half-inhibitory concentration (IC50) of 77 ± 4 µM.
